Measured values from patent US5008187A, “Antifungal fermentation product” (Merck & Co., Inc., priority 1988, dated 1991).
Values after ≈ are worked out from the molar mass of the structure shown. “Also recorded” adds a separate entry of the source.

What was measured:
[1] = test system: A. flavus; test: agar dilution MIC; type: cell-based; conditions: strain MF383, yeast nitrogen base agar
Description: (§1) Minimum inhibiting concentration against representative fungal organisms may be seen in the results of tests carried out by the agar dilution method in which an aqueous suspension of the metabolite was solubilized by adding a small amount of methanol. Further dilutions were made employing water. The diluted samples were added to molten agar to produce final concentrations of 512 μg/ml and lower. The molten agar was yeast nitrogen base agar prepared by adding 1 part of sterile yeast nitrogen base agar to 9 parts 2% Difco agar.

[2] = test system: Aspergillus fumigatus; test: agar dilution MIC; type: cell-based; conditions: strain MF4839, yeast nitrogen base agar
Description: as §1

[3] = test system: Aspergillus niger; test: agar dilution MIC; type: cell-based
Description: as §1

[4] = test system: C. rugosa; test: agar dilution MIC; type: cell-based; conditions: strain MY1022, yeast nitrogen base agar
Description: as §1

[5] = test system: C. tropicalis; test: agar dilution MIC; type: cell-based; conditions: strain MY1012, yeast nitrogen base agar
Description: as §1

[6] = test system: Candida pseudotropicalis; test: agar dilution MIC; type: cell-based; conditions: strain MY1100, yeast nitrogen base agar
Description: as §1

[7] = test system: Cephalosporium sp.; test: agar dilution MIC; type: cell-based; conditions: strain MF4641, yeast nitrogen base agar
Description: as §1

[8] = test system: Ceratocystis ulmi; test: agar dilution MIC; type: cell-based; conditions: strain MF4042, yeast nitrogen base agar
Description: as §1

[9] = test system: Cercospora beticola; test: agar dilution MIC; type: cell-based; conditions: strain MF4608, yeast nitrogen base agar
Description: as §1

[10] = test system: Cr. albidus; test: agar dilution MIC; type: cell-based; conditions: strain MY1070, yeast nitrogen base agar
Description: as §1

[11] = test system: Cr. laurentii; test: agar dilution MIC; type: cell-based
Description: as §1

[12] = test system: Cryptococcus neoformans; test: agar dilution MIC; type: cell-based
Description: as §1

[13] = test system: Debaryomyces guilliermondi; test: agar dilution MIC; type: cell-based; conditions: strain MY321, yeast nitrogen base agar
Description: as §1

[14] = test system: Fusarium oxysporium; test: agar dilution MIC; type: cell-based; conditions: strain MF4014, yeast nitrogen base agar
Description: as §1

[15] = test system: Penicillium sp.; test: agar dilution MIC; type: cell-based
Description: as §1

[16] = test system: Scopulariopsi communis; test: agar dilution MIC; type: cell-based; conditions: strain MF3769, yeast nitrogen base agar
Description: as §1

[17] = test system: Trichoderma lignorum; test: agar dilution MIC; type: cell-based; conditions: strain MF3560, yeast nitrogen base agar
Description: as §1

[18] = test system: Trichoderma sp.; test: agar dilution MIC; type: cell-based; conditions: strain MF4064, yeast nitrogen base agar
Description: as §1

[19] = test system: Ustilago maydis; test: agar dilution MIC; type: cell-based; conditions: strain MF1996, yeast nitrogen base agar
Description: as §1

[20] = test system: Verticillium serrae; test: agar dilution MIC; type: cell-based; conditions: strain MF3794, yeast nitrogen base agar
Description: as §1

[21] = test system: filamentous fungi and yeast organisms; test: antifungal activity (summary statement); type: cell-based; conditions: in words
Description: as §1

[22] = test system: bacteria; test: antibacterial activity (summary statement); type: cell-based; conditions: in words, no data shown
[23] = solubility in organic solvents; type: physicochemical; conditions: organic solvents such as methanol, ethanol, dimethylformamide, dimethyl sulfoxide, ethyl acetate

CCCCCCC(C)CC(C)=CC(C=C(C)C=CC(O)C(C)(C)c1cc(O)c(C2OC(CO)CC(O)C2O)c(=O)o1)CO (centres unmarked) [Compound I]
MIC [1]: 64 µg/mL (≈ 105 µM) | MIC [2]: 64 µg/mL (≈ 105 µM) | MIC ([3]; strain MF11, yeast nitrogen base agar): 1.6 µg/mL (≈ 2.64 µM) | MIC ([3]; strain MF442, yeast nitrogen base agar): 3.1 µg/mL (≈ 5.11 µM) | MIC [4]: 25 µg/mL (≈ 41.2 µM) | MIC [5]: 25 µg/mL (≈ 41.2 µM) | MIC [6]: 25 µg/mL (≈ 41.2 µM) | MIC [7]: 12.5 µg/mL (≈ 20.6 µM) | MIC [8]: 25 µg/mL (≈ 41.2 µM) | MIC [9]: 4 µg/mL (≈ 6.59 µM) | MIC [10]: 8 µg/mL (≈ 13.2 µM) | MIC ([11]; strain MY1073, yeast nitrogen base agar): 6.2 µg/mL (≈ 10.2 µM) | MIC ([11]; strain MY1074, yeast nitrogen base agar): 8 µg/mL (≈ 13.2 µM) | MIC ([11]; strain MY1077, yeast nitrogen base agar): 12.5 µg/mL (≈ 20.6 µM) | MIC ([12]; strain MY1046, yeast nitrogen base agar): 8 µg/mL (≈ 13.2 µM) | MIC ([12]; strain MY1050, yeast nitrogen base agar): 32 µg/mL (≈ 52.7 µM) | MIC ([12]; strain MY1051, yeast nitrogen base agar): 128 µg/mL (≈ 211 µM) | MIC [13]: 6.2 µg/mL (≈ 10.2 µM) | MIC [14]: 25 µg/mL (≈ 41.2 µM) | MIC ([15]; strain MF5014, yeast nitrogen base agar): 3.1 µg/mL (≈ 5.11 µM) | MIC ([15]; strain MF5020, yeast nitrogen base agar): 1.6 µg/mL (≈ 2.64 µM) | MIC [16]: 6.2 µg/mL (≈ 10.2 µM) | MIC [17]: 6.2 µg/mL (≈ 10.2 µM) | MIC [18]: 1.6 µg/mL (≈ 2.64 µM) | MIC [19]: 8 µg/mL (≈ 13.2 µM) | MIC [20]: 25 µg/mL (≈ 41.2 µM) | antifungal activity [21]: active against a moderately broad spectrum of filamentous fungi and yeast organisms; also recorded: excellent antifungal properties against many filamentous and many yeast organisms | antibacterial properties [22]: antibacterial properties | solubility [23]: soluble
